pEC50: −log10 of the molar value.
How the values were obtained:
SiHa (ATCC HTB-35) = experiment: Monolayer SRB assay, SiHa; assay type: cell-based; settings: Homo sapiens, 72 hrs, HPV16
Method: Various cell culture cells grown as monolayers are harvested from exponential growing cultures after treatment with various OC compounds at different concentrations. For this depending on the cell line, 10.000 to 30.000 cells were plated in 96-well flat-bottom microtiter plates. After a 24 h recovery period to allow cells to resume exponential growth, supernatants are discarded and 100 μl of culture medium (eight control wells/plate) or culture medium with the test compound are added by a liquid handling robotic system (Microlab® Starlet, Hamilton) and treatment continued for 72 hrs. Compounds are applied at 9 concentrations and eight wells/concentration). At least three independent experiments are performed. For SRB staining, cells are fixed with SRB01 (Tab. 5) for 1 h at 4° C. […] Optical density is assessed using a plate-reader (Sunrise, Tecan©) at 540 nm.
Concentrations required for half maximal response of the compound for cell growth inhibition (EC50) is calculated by non-linear regression (log[conc. of inhibitor] versus response (% T/C)) using the analysis software GraphPad Prism®, Prism 5 for windows, version 5.01 (GraphPad Software Inc., CA).

[1] = tested on: patient derived SARS-2 Coronavirus (COVID19); experiment: Inhibition of Sars-CoV2 replication by RNA qPCR analysis in Vero E6 cells; assay type: cell-based, SARS-CoV-2; settings: 7.5 μM, supernatants 3 days after infection, n3
Method: Vero E6 cells were pre-incubated with the compounds at a concentration of 7.5 μM. The cells were infected with a patient derived SARS-2 Coronavirus (COVID19). Cellular supernatants were collected 3 days after infection and centrifuged at 2000 rpm for 5 min to remove detached cells. Viral RNAs were extracted using a MagNA Pure 24 system (Roche, Germany). SARS-CoV-2 RNA genomes were quantified with the TIB MOLBIOL LightMix Assay SARS-CoV-2 RdRP RTqPCR assay kit with RNA Process Control PCR Kit (Roche). The PCR reaction setup was performed using a BRAND LHS laboratory robot to ensure quality. The amplification was performed with a LightCycler 480 II (Roche). Method used in FIG. 10.
SARV-CoV-2 antiviral activity by of VSP034 and VSP035 (n3; number of repeat of the assay at each condition). The results are shown in for DMSO (1), 7.5 μM VSP034 (2) and 7.5 μM VSP035 (3), y axis logarithmic scale. […] (FIG. 9)

Compound	pEC50 (SiHa (ATCC HTB-35))	reduction of virus load as determined by the PCR assay [1]
Cc1ccc(CN2C(=O)c3ccccc3[C@H](C(=O)Nc3cccc(N4CCN(C)CC4)c3)[C@@H]2c2ccc(C(F)(F)F)cc2)cc1 [OC246, N-[3-(4-methylpiperazin-1-yl)phenyl]-2-[(4-methylphenyl)methyl]-1-oxo-3-[4-(trifluoromethyl)phenyl]-1,2,3,4-tetrahydroisoquinoline-4-carboxamide]	5.45	
CN1CCC(CN2C(=O)c3ccccc3[C@H](C(=O)Nc3cccc(N4CCN(C)CC4)c3)[C@H]2c2ccc(C(F)(F)F)cc2)CC1 [VSP035, (3S,4S)-N-[3-(4-methylpiperazin-1-yl)phenyl]-2-[(1-methylpiperidin-4-yl)methyl]-1-oxo-3-[4-(trifluoromethyl)phenyl]-1,2,3,4-tetrahydroisoquinoline-4-carboxamide]		one order of magnitude
